Laboratory results taken from US20150105252A1, “SUBSTITUTED PYRAZOLES AS HERBICIDES” (E I DU PONT DE NEMOURS AND COMPANY, priority 2013, published 2015).

How the values were obtained:
foxtail, giant [1] = experiment: Test A preemergence; format: in vivo, Setaria faberii; settings: preemergence; for Foxtail, Giant plant response rating (0 to 100 scale): 125 g ai/ha, visual injury approx. 10 days after treatment; for Foxtail, Giant plant response rating: 500 g ai/ha, visual injury after approx. 10 days, 0 to 100 scale (0 no effect, 100 complete control)
Procedure, shortened: (§1)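 Seeds were sown in a loam soil–sand blend and given a directed soil spray preemergence; postemergence plants at 2–10 cm, one- to two-leaf stage, were sprayed with compound in non-phytotoxic solvent with surfactant. After about 10 days in a greenhouse, injury was visually rated against untreated controls (0 = no effect, 100 = complete control).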

sedge, umbrella = experiment: Test B flood; format: in vivo, Cyperus difformis; settings: 250 g ai/ha, visual rating on 0 to 100 scale (0 no effect, 100 complete control), 13 to 15 days
Procedure, shortened: (§2)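 Plants were grown to the 2-leaf stage, then pots were flooded to 3 cm above the soil and compounds were applied directly into the paddy water. Water depth was held for the whole test; after 13 to 15 days in a greenhouse, injury was visually rated against untreated controls (0 = no effect, 100 = complete control).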

corn [2] = experiment: Test A preemergence; format: in vivo, Zea mays; settings: preemergence; for Corn plant response rating (0 to 100 scale): 125 g ai/ha, visual injury approx. 10 days after treatment; for Corn plant response rating: 500 g ai/ha, visual injury after approx. 10 days, 0 to 100 scale (0 no effect, 100 complete control)
Procedure, shortened: as §1

barnyardgrass [3] = experiment: Test A postemergence; format: in vivo, Echinochloa crus-galli
Procedure, shortened: as §1

wheat [4] = experiment: Test A postemergence; format: in vivo, Triticum aestivum; settings: Postemergence
Procedure, shortened: as §1

pigweed [5] = experiment: Test A postemergence; format: in vivo, Amaranthus retroflexus; settings: Postemergence
Procedure, shortened: as §1

wheat [6] = experiment: Test A preemergence; format: in vivo, Triticum aestivum; settings: preemergence; for Wheat plant response rating (0 to 100 scale): 125 g ai/ha, visual injury approx. 10 days after treatment
Procedure, shortened: as §1

ducksalad = experiment: Test B flood; format: in vivo, Heteranthera limosa; settings: 250 g ai/ha, visual rating on 0 to 100 scale (0 no effect, 100 complete control), 13 to 15 days
Procedure, shortened: as §2

crabgrass, large [7] = experiment: Test A postemergence; format: in vivo, Digitaria sanguinalis
Procedure, shortened: as §1

rice = experiment: Test B flood; format: in vivo, Oryza sativa; settings: 250 g ai/ha, visual rating on 0 to 100 scale (0 no effect, 100 complete control), 13 to 15 days
Procedure, shortened: as §2

velvetleaf [8] = experiment: Test A postemergence; format: in vivo, Abutilon theophrasti; settings: Postemergence
Procedure, shortened: as §1

velvetleaf [9] = experiment: Test A preemergence; format: in vivo, Abutilon theophrasti; settings: preemergence; for Velvetleaf plant response rating (0 to 100 scale): 125 g ai/ha, visual injury approx. 10 days after treatment
Procedure, shortened: as §1

crabgrass, large [10] = experiment: Test A preemergence; format: in vivo, Digitaria sanguinalis; settings: preemergence; for Crabgrass, Large plant response rating (0 to 100 scale): 125 g ai/ha, visual injury approx. 10 days after treatment; for Crabgrass, Large plant response rating: 500 g ai/ha, visual injury after approx. 10 days, 0 to 100 scale (0 no effect, 100 complete control)
Procedure, shortened: as §1

barnyardgrass [11] = experiment: Test B flood; format: in vivo, Echinochloa crus-galli; settings: 250 g ai/ha, visual rating on 0 to 100 scale (0 no effect, 100 complete control), 13 to 15 days
Procedure, shortened: as §2

morningglory [12] = experiment: Test A preemergence; format: in vivo, Ipomoea spp.; settings: preemergence; for Morningglory plant response rating (0 to 100 scale): 125 g ai/ha, visual injury approx. 10 days after treatment
Procedure, shortened: as §1

foxtail, giant [13] = experiment: Test A postemergence; format: in vivo, Setaria faberii
Procedure, shortened: as §1

barnyardgrass [14] = experiment: Test A preemergence; format: in vivo, Echinochloa crus-galli; settings: preemergence; for Barnyardgrass plant response rating (0 to 100 scale, 0 is no effect, 100 is complete control): 125 g ai/ha, visual injury approx. 10 days after treatment; for Barnyardgrass plant response rating: 500 g ai/ha, visual injury after approx. 10 days, 0 to 100 scale (0 no effect, 100 complete control)
Procedure, shortened: as §1

morningglory [15] = experiment: Test A postemergence; format: in vivo, Ipomoea spp.; settings: Postemergence
Procedure, shortened: as §1

corn [16] = experiment: Test A postemergence; format: in vivo, Zea mays
Procedure, shortened: as §1

pigweed [17] = experiment: Test A preemergence; format: in vivo, Amaranthus retroflexus; settings: preemergence; for Pigweed plant response rating (0 to 100 scale): 125 g ai/ha, visual injury approx. 10 days after treatment
Procedure, shortened: as §1

[18] = Postemergence, 500 g ai/ha, 0 to 100 scale (0 no effect, 100 complete control)
[19] = postemergence, 125 g ai/ha, about 10 days, visual rating on 0 to 100 scale (0 no effect, 100 complete control)
[20] = 125 g ai/ha, 0 to 100 scale, 0 no effect, 100 complete control
[21] = 500 g ai/ha, 0 to 100 scale (0 no effect, 100 complete control)
[22] = 500 g ai/ha, visual injury after approx. 10 days, 0 to 100 scale (0 no effect, 100 complete control)
[23] = Postemergence, 125 g ai/ha, 0 to 100 scale, 0 no effect, 100 complete control

Compound | Foxtail, Giant plant response rating (0 to 100 scale) (foxtail, giant [1]) | Foxtail, Giant plant response rating (foxtail, giant [1]) | Plant response rating, Sedge, Umbrella (sedge, umbrella) | Corn plant response rating (0 to 100 scale) (corn [2]) | Corn plant response rating (corn [2]) | Barnyardgrass plant response rating (barnyardgrass [3]; [18]) | Wheat plant response rating (wheat [4]; [20]) | Wheat plant response rating (wheat [4]; [21]) | Pigweed plant response rating (pigweed [5]; [20]) | Pigweed plant response rating (pigweed [5]; [21]) | Wheat plant response rating (0 to 100 scale) (wheat [6]) | Plant response rating, Ducksalad (ducksalad) | Crabgrass, Large plant response rating (crabgrass, large [7]; [18]) | Plant response rating, Rice (rice) | Velvetleaf plant response rating (velvetleaf [8]; [20]) | Velvetleaf plant response rating (velvetleaf [8]; [21]) | Velvetleaf plant response rating (0 to 100 scale) (velvetleaf [9]) | Crabgrass, Large plant response rating (0 to 100 scale) (crabgrass, large [10]) | Crabgrass, Large plant response rating (crabgrass, large [10]) | Plant response rating, Barnyardgrass (barnyardgrass [11]) | also measured
CCc1cc(C(=O)NCC(F)(F)F)nn1Cc1nc(C(F)(F)F)no1 [Compound 184] | 60 | 90 | 0 | 0 | 30 | 60 | 0 | 20 | 60 | 90 | 0 | 0 | 70 | 0 | 50 | 60 | 0 | 50 | 100 | 0 | Barnyardgrass plant response rating (barnyardgrass [3]; [19]): 0; Wheat plant response rating (wheat [6]; [22]): 20; Crabgrass, Large plant response rating (crabgrass, large [7]; [19]): 0; Velvetleaf plant response rating (velvetleaf [9]; [22]): 50; Morningglory plant response rating (0 to 100 scale) (morningglory [12]): 20; Morningglory plant response rating (morningglory [12]; [22]): 100; Foxtail, Giant plant response rating (foxtail, giant [13]; [18]): 40; Foxtail, Giant plant response rating (foxtail, giant [13]; [19]): 0; Barnyardgrass plant response rating (0 to 100 scale, 0 is no effect, 100 is complete control) (barnyardgrass [14]): 0; Barnyardgrass plant response rating (barnyardgrass [14]): 100; Morningglory plant response rating (morningglory [15]; [20]): 30; Morningglory plant response rating (morningglory [15]; [21]): 90; Corn plant response rating (corn [16]; [18]): 60; Corn plant response rating (corn [16]; [19]): 0; Pigweed plant response rating (0 to 100 scale) (pigweed [17]): 60; Pigweed plant response rating (pigweed [17]; [22]): 100
CCCNC(=O)c1cc(CC)n(Oc2cccc(C(F)(F)F)c2)n1 [Compound 216] | 10 | 40 | 30 | 0 | 10 | 70 | 0 | 0 | 20 | 30 | 0 | 20 | 70 | 0 | 0 | 40 | 0 | 60 | 90 | 0 | Barnyardgrass plant response rating (barnyardgrass [3]; [23]): 0; Crabgrass, Large plant response rating (crabgrass, large [7]; [23]): 20; Morningglory plant response rating (0 to 100 scale) (morningglory [12]): 0; Foxtail, Giant plant response rating (foxtail, giant [13]; [23]): 0; Foxtail, Giant plant response rating (foxtail, giant [13]; [18]): 40; Barnyardgrass plant response rating (0 to 100 scale, 0 is no effect, 100 is complete control) (barnyardgrass [14]): 0; Barnyardgrass plant response rating (barnyardgrass [14]): 80; Morningglory plant response rating (morningglory [15]; [20]): 20; Morningglory plant response rating (morningglory [15]; [21]): 70; Corn plant response rating (corn [16]; [23]): 0; Corn plant response rating (corn [16]; [18]): 50; Pigweed plant response rating (0 to 100 scale) (pigweed [17]): 0
CCc1cc(C(=O)NCC(F)(F)F)nn1Oc1cccc(C(F)(F)F)c1 [Compound 217] | 0 | 40 | 0 | 0 | 0 | 20 | 0 | 0 | 20 | 70 | 0 | 0 | 70 | 0 | 0 | 30 | 0 | 50 | 90 | 0 | Barnyardgrass plant response rating (barnyardgrass [3]; [23]): 0; Crabgrass, Large plant response rating (crabgrass, large [7]; [23]): 20; Morningglory plant response rating (0 to 100 scale) (morningglory [12]): 0; Foxtail, Giant plant response rating (foxtail, giant [13]; [23]): 0; Foxtail, Giant plant response rating (foxtail, giant [13]; [18]): 30; Barnyardgrass plant response rating (0 to 100 scale, 0 is no effect, 100 is complete control) (barnyardgrass [14]): 0; Barnyardgrass plant response rating (barnyardgrass [14]): 20; Morningglory plant response rating (morningglory [15]; [20]): 20; Morningglory plant response rating (morningglory [15]; [21]): 70; Corn plant response rating (corn [16]; [23]): 0; Corn plant response rating (corn [16]; [18]): 20; Pigweed plant response rating (0 to 100 scale) (pigweed [17]): 20
CCc1cc(C(=O)NCC(F)(F)F)nn1Oc1cccc(C(F)(F)F)c1 [Compound 218] | 0 | 40 | 0 | 0 | 0 | 20 | 0 | 10 | 50 | 80 | 0 | 0 | 40 | 0 | 0 | 40 | 0 | 10 | 80 | 0 | Barnyardgrass plant response rating (barnyardgrass [3]; [23]): 0; Crabgrass, Large plant response rating (crabgrass, large [7]; [23]): 20; Morningglory plant response rating (0 to 100 scale) (morningglory [12]): 0; Foxtail, Giant plant response rating (foxtail, giant [13]; [23]): 20; Foxtail, Giant plant response rating (foxtail, giant [13]; [18]): 30; Barnyardgrass plant response rating (0 to 100 scale, 0 is no effect, 100 is complete control) (barnyardgrass [14]): 0; Barnyardgrass plant response rating (barnyardgrass [14]): 40; Morningglory plant response rating (morningglory [15]; [20]): 50; Morningglory plant response rating (morningglory [15]; [21]): 100; Corn plant response rating (corn [16]; [23]): 10; Corn plant response rating (corn [16]; [18]): 20; Pigweed plant response rating (0 to 100 scale) (pigweed [17]): 0
CCCNC(=O)c1cc(CC)n(Oc2cccc(OC(F)(F)F)c2)n1 [Compound 219] | 0 | 20 | 75 | 0 | 0 | 40 | 0 | 10 | 20 | 60 | 0 | 30 | 70 | 0 | 0 | 90 | 0 | 40 | 90 | 0 | Barnyardgrass plant response rating (barnyardgrass [3]; [23]): 10; Crabgrass, Large plant response rating (crabgrass, large [7]; [23]): 20; Morningglory plant response rating (0 to 100 scale) (morningglory [12]): 0; Foxtail, Giant plant response rating (foxtail, giant [13]; [23]): 20; Foxtail, Giant plant response rating (foxtail, giant [13]; [18]): 60; Barnyardgrass plant response rating (0 to 100 scale, 0 is no effect, 100 is complete control) (barnyardgrass [14]): 0; Barnyardgrass plant response rating (barnyardgrass [14]): 20; Morningglory plant response rating (morningglory [15]; [20]): 10; Morningglory plant response rating (morningglory [15]; [21]): 70; Corn plant response rating (corn [16]; [23]): 10; Corn plant response rating (corn [16]; [18]): 20; Pigweed plant response rating (0 to 100 scale) (pigweed [17]): 0
